Results from patent publication US20230220331A1, “TEMPORARY TREATMENT MEDIUM, TREATMENT KIT, EMBRYOGENESIS ARREST INHIBITOR, EMBRYOGENESIS ARREST INHIBITORY METHOD, DEVELOPMENTAL ENGINEERING PRODUCT PREPARATION METHOD, TRANSPLANTATION METHOD, THERAPEUTIC METHOD, AND DEVELOPMENTAL ENGINEERING PRODUCT” (priority 2020, published 2023).

Tests used:
[1] = tested on: frozen and thawed pronuclear stage and 2-cell stage embryos of rat Wistar-Imamichi; assay: Genome-edited individuals by frozen 1-2 cell TAKE of Wistar-Imamichi (Treatment Example 17); assay type: cell-based
Text: Next, knock-outs by TAKE were also produced in the pronuclear stage (1 cell) and the 2-cell stage (2 cells) […] of the frozen and thawed inbred rat Wistar-Imamichi. The conditions at this time were that the gRNA concentration was a specified amount (1 time), the pulse was 7 times, and the reduction rate was 40%.

[2] = tested on: frozen embryos of C57BL/6J; assay: Recovery of re-frozen and re-thawed blastocysts, cytochalasin B vs Y-27632 (Treatment Example 10); assay type: cell-based, mouse; conditions: 10 μM in mWM; 19 embryos
Procedure: In this treatment example, as in the above-mentioned treatment example 9, the normal medium (hereinafter, referred to as “Y− medium” as in the treatment example 9), the temporary treatment medium to which Y-27632 is added (hereinafter, referred to as “Y+ medium” as in the treatment example 9), and a CB-added medium (hereinafter, referred to as “CB+ medium”) were used. The concentrations of CB in the CB+ medium were 5 μM and 10 μM are prepared. As the manipulation, the recovery rates when frozen embryos were thawed and developed, then re-frozen in blastocysts and re-thawed were compared.
For the treatment, 107 frozen embryos of C57BL/6J (provided from CLEA Japan, Inc.) at the 2-cell stage were used. Firstly, the frozen embryos at the 2-cell stage were thawed and blastocysts were developed as they were in a normal medium.
Then, the blastocysts were then transferred to each of the above media and placed for 30 minutes. Then, the embryos were transferred to Y− medium again and placed for 30 minutes.
Then, each embryo was frozen.
Then, the embryos were then thawed and placed in M2 medium for 10 minutes.
Then, each embryo was evenly divided and placed on the medium for 1 hour.
The embryos were observed by returning to the Y− medium again. This observation was performed immediately after thawing, 3 hours later, and 24 hours later.

[3] = tested on: pronuclear stage embryos of inbred rats F344; assay: Generation of Flox inbred rats (individuals) by one-step method (Treatment Example 12); assay type: cell-based, rat; conditions: F344, floxed p53 1STEP, high concentration, many pulses
Procedure: The pronuclear stage embryos of inbred rats similar to those of Treatment Example 6 according to Example 1 were knocked in by an electroporation method (1STEP method) by using a high concentration ssODN, and further individual preparations were performed. As in the above-mentioned treatment example 6, insertion of the LoxP that was not knocked in at the normal ssODN concentration and the number of transfer pulses was performed with the same temporary treatment as in the above-mentioned Example 1. Specifically, before and after electroporation, 1 hour of the temporary treatment, 24 hours of culture in the normal medium (waiting period), and 1 hour of the temporary treatment were performed. This made it possible to double the concentration of ssODN and the number of electroporations and to knocked in. Further, when the concentration of Cas9 was increased 5 times, Flox inbred rats were obtained by one electroporation.

[4] = tested on: Wistar-Imamichi and WKY rat embryos; assay: Klotho (40 kbp) large deletion knockout rats by electroporation (Treatment Example 13); assay type: cell-based; conditions: for large deletion (proportion of individuals) / large deletion (%): Klotho
Procedure: In the Wistar-Imamichi line, which are similar to the inbred line, and the inbred WKY line, when the Klotho gene (40 kbp), of which whole gene could not normally be deleted, were knocked out by electroporation, the temporarily treatment is processed as similar to Example 1 as described above. Specifically, before and after electroporation, 1 hour of temporary treatment, 24 hours of culture in the normal medium (waiting period), and 1 hour of temporary treatment were performed.

[5] = tested on: Early embryos of the heterologous mouse Mus caroli; assay: ES cell establishment from electroporated early embryos (Treatment Example 4); assay type: cell-based; conditions: Mus caroli early embryos cultured in Y-27632 medium, then electroporated
Procedure: 1. Up to 3 hours before TAKE, Y-27632-added mWM medium (Y-27632 final concentration 10 μM, an example of the “temporary treatment medium” of this example), Y-27632-free mWM medium (an example of “normal medium” of this example) were dropped into 35 mm Petri dishes by 5 drops, respectively, to prepare drops covered with paraffin oil.
2. Two-cell stage embryos were collected from the drops or thawed, placed in Y-27632-added mWM medium, and cultured for about 30 minutes to 1 hour (temporary treatment).
3. After that, TAKE was performed.
4. After TAKE, the embryos were placed in Y-27632-added mWM medium and cultured for about 30 minutes to 1 hour (temporary treatment). Then, the embryos were placed in Y-27632-free mWM medium and cultured at 37° C. under 5% CO2 and 5% O2 conditions until transplantation.
5. Then, if necessary, the culture was continued in the Y-27632-free mWM medium to establish ES cells.
When Mus caroli ES cells were knocked out of the Tyr gene by genome editing and a part of them was analyzed, it was shown that NHEJ occurred and heterologous mouse ES cells were established.

[6] = Wistar-Imamichi, HIGH CONCENTRATION
[7] = Wistar-Imamichi, 164 transferred embryos
[8] = Wistar-Imamichi, LOW CONCENTRATION

For `C[C@@H](N)[C@H]1CC[C@H](C(=O)Nc2ccncc2)CC1` [Y-27632, trans-4-[(1R)-1-Aminoethyl]-N-4-pyrid inylcyclohexanecarboxamide], the “NUMBER OF KO INDIVIDUALS (Large Deletion)” value ([1]; 37 TAKE embryos, 1 recipient) was 2, the “NUMBER OF NEWBORNS” value ([1]; 37 TAKE embryos, 1 recipient, 1x gRNA, 7 pulses, 40% reduction rate) was 8 and the “KO rate (Large deletion) (%)” value ([1]; KO individuals / newborns analyzed) was “(25%)”. The “RECOVERY RATE about 3 hours later” value [2] was 94%, the “RECOVERY RATE about 24 hours later” value [2] was 89% and the “RECOVERY RATE immediately after thawing” value [2] was 36%. For the same compound, the “number of embryos ABOUT 3 HOURS LATER” value [2] was 18, the “number of embryos ABOUT 24 HOURS LATER” value [2] was 17 and the “number of embryos IMMEDIATELY AFTER THAWING” value [2] was 7. For the same compound, the “NUMBER OF FLOX INDIVIDUALS / FLOX (2 SITES)” value ([3]; 92 transplanted embryos) was 1/9, the Flox individuals % ([3]; listed as +Y) was 11% and the Flox individuals % ([3]; listed as Y) was 11.1%. The “large deletion (proportion of individuals)” value ([4]; WKY, high concentration, many pulses, 15 transferred embryos) was 2/3, the “large deletion (%)” value ([4]; WKY, high concentration, many pulses, listed as +Y) was “(66%)” and the “large deletion (%)” value ([4]; WKY, high concentration, many pulses, listed as Y) was 66.6%. The “KLOTHO LARGE DELETION HETERO %” value [4, 6] was 41.3%, the “KLOTHO LARGE DELETION HOMO %” value [4, 6] was 23.2% and the “NUMBER OF INDIVIDUALS, KLOTHO LARGE DELETION HETERO” value [4, 6] was 19/46. For the same compound, the “NUMBER OF INDIVIDUALS, KLOTHO LARGE DELETION HOMO” value [4, 6] was 10/46, the “large deletion (%)” value [4, 7] was “(63%)” and the “large deletion (proportion of individuals)” value [4, 7] was 29/46. For the same compound, the “KLOTHO LARGE DELETION HETERO %” value [4, 8] was 16.6%, the “KLOTHO LARGE DELETION HOMO %” value [4, 8] was 0% and the “NUMBER OF INDIVIDUALS, KLOTHO LARGE DELETION HETERO” value [4, 8] was 3/18. The “NUMBER OF INDIVIDUALS, KLOTHO LARGE DELETION HOMO” value [4, 8] was 0/18 and the ES cells established [5] was “at a high rate”.
